According to doi:10.1101/2025.05.27.656397, “A new heme enzyme family forms hydrazine groups in diverse biosynthetic pathways” (bioRxiv, 2025):

Tests used:
[1] = biological target: T1, KinIJ (Streptomyces murayamaensis, UniProt A0A385LMJ2); test: LC-MS detection of L-hydrazinosuccinate; format: biochemical; conditions: methyl or benzyl viologen, anaerobic
T1 construct: gene kinJ; heterodimer, His6 tag on one or both proteins, expressed aerobically in E. coli and purified anaerobically; KinI co-purified or added separately; with Ferredoxin KinI

[2] = biological target: T2, KinJ (Streptomyces murayamaensis, UniProt A0A385LMJ2); test: EPR spectroscopy; format: binding; conditions: ferric enzyme; axial ligand of heme; no ferredoxin
T2 construct: monomeric when expressed alone; contains heme b

[3] = biological target: FzmP, co-expressed with KinI (not stated (Streptomyces sp. S-149 or Streptomyces sp. XY332 cloned)); test: SEC; anaerobic size exclusion chromatography of proteins expressed alone or co-expressed and purified
[4] = biological target: T3, KinJ from Streptomyces murayamaensis ATCC 21414 (tag placement not stated for the experiment) (Streptomyces murayamaensis ATCC 21414, UniProt A0A385LMJ2); test: reciprocal His6 co-purification (pull-down) and anaerobic SEC of the co-expressed complex; co-expressed in E. coli and purified anaerobically as a complex
T3 chain: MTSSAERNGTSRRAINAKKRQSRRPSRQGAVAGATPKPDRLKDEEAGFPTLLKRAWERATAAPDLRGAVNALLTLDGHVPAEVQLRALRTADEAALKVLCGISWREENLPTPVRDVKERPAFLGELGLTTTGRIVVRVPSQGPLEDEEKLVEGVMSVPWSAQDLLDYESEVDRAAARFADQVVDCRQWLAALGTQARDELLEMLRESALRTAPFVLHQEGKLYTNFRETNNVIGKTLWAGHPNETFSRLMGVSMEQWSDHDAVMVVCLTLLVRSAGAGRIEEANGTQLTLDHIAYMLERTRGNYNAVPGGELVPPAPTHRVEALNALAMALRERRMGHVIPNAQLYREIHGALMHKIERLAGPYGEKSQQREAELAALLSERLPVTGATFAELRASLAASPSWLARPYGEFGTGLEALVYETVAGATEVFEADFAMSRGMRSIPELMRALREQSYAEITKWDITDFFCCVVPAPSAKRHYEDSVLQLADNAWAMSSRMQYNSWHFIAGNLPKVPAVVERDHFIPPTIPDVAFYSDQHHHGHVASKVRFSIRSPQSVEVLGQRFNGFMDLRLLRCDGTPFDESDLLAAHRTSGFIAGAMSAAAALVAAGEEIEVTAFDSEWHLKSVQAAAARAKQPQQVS

`N[C@@H](CC(=O)O)C(=O)O` [L-aspartate] was tested. Which “LC-MS detection of L-hydrazinosuccinate” value ([1]; NaNO2, sodium dithionite) did it give?
The value was “indicating the formation of an N–N bond-containing product from L-Asp and NO2^–”.

What does the source list for `O=NO` [NO2^–]?
EPR spectroscopy [2]: addition of NO2^– (a strong field ligand) was associated with the formation of a 6-coordinate rhombic; LC-MS detection of L-hydrazinosuccinate ([1]; L-aspartate, sodium dithionite, 15N-labelled nitrite also used): indicating the formation of an N–N bond-containing product from L-Asp and NO2^–

With FzmP, co-expressed with KinI (enzyme) as the molecule, how does the stoichiometry N [3] read?
Its stoichiometry N is 2.

B1: KinI (ferredoxin; tag placement not stated for the experiment) (protein)
chain: MPTNTSDDSLDETVEGSVSGRDKLIAERTRSETWKKPPRRIERAECITCDTCLRACPPEFNAIFDNGLDVVIIPELCSGCPKCVLECPVDCIYVDEDWTPTTDEMWKHIGLTAEGVS
Does B1 bind [4]?
Result: binds
